Read-outs that look alike come from different tables or passages of the source.

In assay [1] the target is T1, CB1 (Rattus norvegicus, UniProt P20272). The assay can be described thus: Rat CB1 receptor binding using brain membrane, [3H]SR141716A displacement (Protocol I). Set-up: CB1 receptor present in a rat brain membrane preparation; from tissue; host or cells: rat brain membrane; inhibition: dose or concentration left out as unconfirmed. Particulars: for inhibition: 1 h.
Another assay concerns the target hCB1 (Homo sapiens, UniProt P21554). The assay can be described thus: Agonism of CB1 receptors expressed in CHO cells, forskolin cAMP assay (Protocol IX.2). Set-up: expressed in transfected cells; host or cells: CHO (h-CB1/CHO, G418-selected). Type of assay: cell-based. The settings on record: for activation at 10 µM: CHO. In short, it runs like this:
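CHO cells stably expressing hCB1 stimulated with forskolin in Krebs buffer with 0.1% FAF BSA and 1 mM IBMX. Lysed cells' cAMP measured by chemiluminescence; EC50 from nonlinear regression of dose-response curves.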

The target of assay [2] is T1, CB1. Briefly: GTPγS binding assay, CB1 functional assay in rat cerebellar membrane (Protocol VIII). Particulars: for activation at 1 µM: 1 h, read-out: Per Se % Stimulation; for inhibition at 1 µM: read-out: % Inhibition of WIN-55212-2 induced stimulation. The assay is classed as biochemical. Set-up: 10 μg rat cerebellum membrane; from tissue; host or cells: rat cerebellum membrane, prepared in-house. In a few lines:
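Rat cerebellar membranes (10 μg) incubated 1 h at 30 °C with 0.2 nM [35S]GTPγS, 50 μM GDP, and compound at 1 μM or 300 nM, alone or with 1 μM WIN 55,212-2, in Tris/MgCl2/EGTA/NaCl pH 7.4. Filter-bound radioactivity counted; percent stimulation calculated against basal specific binding (nonspecific defined by 10 μM GTPγS).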

Setting [3] is: rat brain membrane, [3H]SR141716A displacement, read-out: % Displacement Protocol I.
The mark [4] stands for this setting: at 10 uM, h-CB1/CHO cells, cAMP.
Setting [5] is: GTPγS binding over basal, rat cerebellar membrane, tested at 1 uM.
Where [6] appears, read: GTPγS binding, tested at 1 uM in presence of 1 μM WIN 55,212-2.
Where [7] appears, read: bare number, no unit or concentration given.

hCB1, sequence (P21554 whole entry): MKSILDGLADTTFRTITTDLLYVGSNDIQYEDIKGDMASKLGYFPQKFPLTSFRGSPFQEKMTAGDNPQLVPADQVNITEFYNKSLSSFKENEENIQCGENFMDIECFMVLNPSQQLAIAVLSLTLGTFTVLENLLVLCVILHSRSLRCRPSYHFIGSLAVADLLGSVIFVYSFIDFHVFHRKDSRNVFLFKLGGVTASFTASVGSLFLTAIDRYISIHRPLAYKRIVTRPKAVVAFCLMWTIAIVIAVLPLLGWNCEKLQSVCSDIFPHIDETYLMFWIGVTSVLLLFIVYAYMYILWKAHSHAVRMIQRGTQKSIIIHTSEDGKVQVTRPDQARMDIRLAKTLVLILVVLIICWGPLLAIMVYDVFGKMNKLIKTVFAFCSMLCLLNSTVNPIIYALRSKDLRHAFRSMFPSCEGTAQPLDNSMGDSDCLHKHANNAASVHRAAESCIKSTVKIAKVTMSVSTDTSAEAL
T1 sequence (P20272 whole entry): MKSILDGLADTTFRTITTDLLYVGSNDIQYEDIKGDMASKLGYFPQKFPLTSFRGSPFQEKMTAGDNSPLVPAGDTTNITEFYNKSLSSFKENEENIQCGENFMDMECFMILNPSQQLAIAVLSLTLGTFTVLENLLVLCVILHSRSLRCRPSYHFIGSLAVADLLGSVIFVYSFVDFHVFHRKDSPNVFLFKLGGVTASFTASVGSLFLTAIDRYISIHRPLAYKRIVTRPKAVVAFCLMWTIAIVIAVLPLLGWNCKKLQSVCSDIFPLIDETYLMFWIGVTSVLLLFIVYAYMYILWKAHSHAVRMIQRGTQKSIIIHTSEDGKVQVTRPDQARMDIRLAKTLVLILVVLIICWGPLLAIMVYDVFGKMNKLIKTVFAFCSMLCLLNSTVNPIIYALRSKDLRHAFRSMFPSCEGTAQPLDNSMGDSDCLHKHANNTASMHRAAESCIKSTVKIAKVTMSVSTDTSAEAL

Regarding `O=C(NNc1ccccc1Br)c1nn(-c2ccc(Cl)cc2Cl)c2c1C1CCC2C1` (stereo not drawn) [Example 263, N(3)-[(2-Bromophenyl)amino]-1-(2,4-dichlorophenyl)-4,5,6,7-tetrahydro-1H-4,7-methano-indazole-3-carboxamide], at CB1 [1] (setting [3]), the inhibition is 69.1%. Besides, on hCB1 (setting [4]), the activation at 10 µM came out at 16.2%.
For `O=C(NC1CCCCC1)c1nn(-c2ccc(Br)cc2)c2c1C1CCC2C1` (stereo not drawn) [Example 275, N(3)-Cyclohexyl-1-(4-bromophenyl)-4,5,6,7-tetrahydro-1H-4,7-methano-indazole-3-carboxamide], in that order: 38.8% and 16.4%.
Turning to `O=C(NCc1ccccc1Cl)c1nn(-c2ccc(Cl)cc2)c2c1C1CCC2C1` (stereo not drawn) [Example 221, N(3)-(2-Chlorobenzyl)-1-(4-chlorophenyl)-4,5,6,7-tetrahydro-1H-4,7-methano-indazole-3-carboxamide], at CB1 [2] (setting [5]), the activation at 1 µM was -16.7%. The inhibition at 1 µM at CB1 [2] (setting [6]) stood at 95.7%. Besides, on CB1 [1] (read-out: % Displacement Protocol I, rat brain membrane, [3H]SR141716A displacement), the inhibition is 68.6%. Besides, the activation at 10 µM on hCB1 (setting [4]) worked out at 0%.
With `O=C(NNc1ccc(Cl)cc1Cl)c1nn(-c2ccc(Cl)cc2Cl)c2c1C1CCC2C1` (stereo not drawn) [Example 260, N(3)-[(2,4-Dichlorophenyl)amino]-1-(2,4-dichlorophenyl)-4,5,6,7-tetrahydro-1H-4,7-methano-indazole-3-carboxamide], the activation at 1 µM at CB1 [2] (setting [5]) was determined as 38%. In addition, the inhibition at 1 µM at CB1 [2] (setting [6]) amounted to 78.8%. Moreover, at CB1 [1] (setting [3]), the inhibition amounted to 84.4%. In addition, the “hCB1 Agonism” value on hCB1 (setting [7]) worked out at 0.
Consider `O=C(NCc1ccc(Cl)cc1Cl)c1nn(-c2ccc(Cl)cc2Cl)c2c1C1CCC2C1` (stereo not drawn) [Example 251, N(3)-(2,4-Dichlorobenzyl)-1-(2,4-dichlorophenyl)-4,5,6,7-tetrahydro-1H-4,7-methano-indazole-3-carboxamide], for which the inhibition at CB1 [1] (setting [3]) turned out to be 42.3%. Also, the activation at 10 µM at hCB1 (setting [4]) came out at 37%.
As to `O=C(NNc1ccccc1Cl)c1nn(-c2ccc(Cl)cc2Cl)c2c1C1CCC2C1` (stereo not drawn) [Example 257, N(3)-[(2-Chlorophenyl)amino]-1-(2,4-dichlorophenyl)-4,5,6,7-tetrahydro-1H-4,7-methano-indazole-3-carboxamide], the activation at 1 µM at CB1 [2] (setting [5]) was -5.1%. In addition, the inhibition at 1 µM at CB1 [2] (setting [6]) was 48.3%. The inhibition on CB1 [1] (setting [3]) turned out to be 73.5%. Further, the “hCB1 Agonism” value on hCB1 (setting [7]) is reported as 0.
Turning to `O=C(NN1CCCCC1)c1nn(-c2ccc(Cl)cc2)c2c1C1CC3CC(C1)CC2C3` [Example 140, N(7)-Piperidino-5-(4′-chlorophenyl)-5,6-diazatetracyclo[7.3.1.1^3,11.0^4,8]tetradeca-4(8)-6-diene-7-carboxamide], the “Per Se % Stimulation” value on CB1 [2] (setting [5]) worked out at 24.9%. Besides, at CB1 [2] (setting [6]), the “% Inhibition of WIN-55212-2 induced stimulation” value stood at 71.9%. Besides, the “% Displacement Protocol I” value at CB1 [1] (rat brain membrane, [3H]SR141716A displacement) stood at 50.4%. Besides, the “hCB1 Agonism” value on hCB1 (setting [4]) came out at 48.88% at.
For the compound `CN(NC(=O)c1nn(-c2ccc(Cl)cc2)c2c1C1CCC2C1)C1CCCCC1` (stereo not drawn) [Example 213, N(3)-[(N-Cyclohexyl-N-methyl)amino]-1-(4-chlorophenyl)-4,5,6,7-tetrahydro-1H-4,7-methano-indazole-3-carboxamide], the inhibition on CB1 [1] (setting [3]) is 48.5%. Besides, at hCB1 (setting [4]), the activation at 10 µM came out at 0%.
